Source: PMC10791743, “Selective CK1α degraders exert antiproliferative activity against a broad range of human cancer cell lines” (Nature Communications, 2024)
Several values for one entry are separate records, joined by “and”; a condition that tells them apart may be missing. Equal entries are not always repeated.

How the values were obtained:
[1] = tested on: PER117 cells; assay: CTG viability, PER117; type: cell-based, human; conditions: for IC50: PER117 cells, replicate values
Procedure: After establishing the potency and selectivity of our lead CK1α degraders, we investigated their effect on a panel of AML and ALL cell lines (Fig. 3a).
The primary screen was performed in 384-well format using the CellTiter Glo (CTG) luminescent cell viability assay (Promega) as previously described. 3630 compounds from the St. Jude proprietary molecular glue library were screened against 9 human cancer cell lines (HD-MB03, MB004, MB002, MHH-CALL4, MOLM-13, TF-1, HEL, OCI-AML3, AML193). Each cell line was cultured in the complete medium recommended by the vendor and seeded in Corning 8804 BC white 384-well assay plates at densities of 1000, 1000, 1500, 7500, 1250, 156, 625, 1250, 1250 cells per well for HD-MB03, MB004, MB002, MHH-CALL4, MOLM-13, TF-1, HEL, OCI-AML, AML193, respectively. After overnight incubation at 37 °C in a humidified 5% CO2 incubator, cells were treated with compounds in dose–response format using a Pintool on a Biomek FX^P Laboratory Automation Workstation (Beckman Coulter). After 72 h of incubation, cell proliferation was assessed using a CellTiter-Glo (CTG) luminescent cell viability assay (Promega) according to the manufacturer’s instructions. Luminescence signal was measured using an EnVision plate reader (PerkinElmer).
HD-MB03 cell line was obtained from Drs. Milde, Witt and Deubzer[52]. HD-MB03 and MB004 cells were grown in a neurobasal medium supplemented with glutamine, streptomycin, penicillin, B27, EGF, bFGF, and heparin as previously described. MB002 and MB004 cells were obtained from Dr Yoon-Jae Cho[54]. MB002 cells were cultured in 80% neurobasal medium supplemented with glutamine, streptomycin, penicillin, B27, and 20% conditioned media from previous passages; EGF, bFGF, and heparin were also added to the medium. MHH-CALL4, NALM-16, MHH-CALL-2 cells were obtained from the German Collection of Microorganisms and Cell Cultures GmbH (DSMZ, Germany). PER-117 cells were obtained from Telethon Kids Institute (Perth, Australia). The cells were cultured in RPMI1640 medium supplemented with 10% FBS (Hyclone), Penicillin/Streptomycin (100 units/mL), and Glutamine (100 µM) except for MHH-CALL-2 cells where 20% FBS were used. MOLM-13 cells were obtained from DSMZ (ACC 554) and cultured in RPMI-1640 media (Gibco) supplemented with 20% FBS (R&D Systems) and 100 U/ml penicillin-streptomycin (Gibco). HNT-34 cells were purchased from DSMZ (ACC 600) and cultured in RPMI-1640 media supplemented with 20% FBS and 100 U/ml penicillin-streptomycin. Kasumi-3 cells were purchased from ATCC (CRL-2725) and cultured in RPMI-1640 media supplemented with 20% FBS and 100 U/ml penicillin-streptomycin. UCSD-AML1 cells were purchased from DSMZ (ACC 691) and cultured in RPMI-1640 media supplemented with 20% FBS, 100 U/ml penicillin–streptomycin, and 10 ng/ml human GM-CSF (PeproTech). […] OCI-AML3 cells were purchased from DSMZ (ACC 690) and cultured in Alpha-MEM media (Invitrogen) supplemented with 20% FBS and 100 U/ml penicillin–streptomycin. HEL cells were obtained from Dr. Charles Mullighan and cultured in RPMI-1640 media supplemented with 10% FBS and 100 U/ml penicillin-streptomycin. AML193 cells were purchased from DSMZ (ACC 549) and cultured in IMDM supplemented with 5% FBS, 100 U/ml penicillin–streptomycin, Insulin–Transferrin–Selenium (ITS-G, Gibco), and 5 ng/ml human GM-CSF. Cell identity was confirmed by STR profiling using PowerPlex® Fusion System (Promega).

[2] = biological target: T1, CK1α-CRBN ternary complex (Homo sapiens, UniProt P48729+Q96SW2); assay: Live cell CK1α-CRBN ternary complex NanoBRET assay; type: cell-based
T1 construct: engineered by CRISPR/Cas9 to express endogenous CK1α (HEK293 cells) or IKZF1 (Jurkat cells) with a HiBiT tag; CS3023104 (cells)
T1 sequence (Q96SW2 whole entry): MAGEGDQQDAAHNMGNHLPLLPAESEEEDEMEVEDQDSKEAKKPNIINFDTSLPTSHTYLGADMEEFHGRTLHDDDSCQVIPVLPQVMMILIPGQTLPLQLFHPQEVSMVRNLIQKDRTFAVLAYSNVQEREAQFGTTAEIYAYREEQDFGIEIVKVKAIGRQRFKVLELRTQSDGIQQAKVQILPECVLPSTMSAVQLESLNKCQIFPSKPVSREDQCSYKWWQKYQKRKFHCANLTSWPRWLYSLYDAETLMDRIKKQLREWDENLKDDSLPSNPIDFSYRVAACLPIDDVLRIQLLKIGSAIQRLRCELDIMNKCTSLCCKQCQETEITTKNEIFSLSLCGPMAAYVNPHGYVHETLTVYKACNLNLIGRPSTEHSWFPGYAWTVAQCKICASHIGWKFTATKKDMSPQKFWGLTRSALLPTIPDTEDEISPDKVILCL
T1 sequence (P48729 whole entry): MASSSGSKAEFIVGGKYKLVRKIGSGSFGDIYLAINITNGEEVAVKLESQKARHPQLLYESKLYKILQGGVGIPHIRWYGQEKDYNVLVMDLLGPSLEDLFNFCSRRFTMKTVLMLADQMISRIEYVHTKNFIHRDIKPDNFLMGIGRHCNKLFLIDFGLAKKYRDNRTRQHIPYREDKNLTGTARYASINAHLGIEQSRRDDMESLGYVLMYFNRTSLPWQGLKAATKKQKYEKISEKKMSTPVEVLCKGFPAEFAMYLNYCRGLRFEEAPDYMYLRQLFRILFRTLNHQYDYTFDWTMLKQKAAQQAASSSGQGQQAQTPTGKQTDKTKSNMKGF
T1 sequence (Q16531 whole entry partner): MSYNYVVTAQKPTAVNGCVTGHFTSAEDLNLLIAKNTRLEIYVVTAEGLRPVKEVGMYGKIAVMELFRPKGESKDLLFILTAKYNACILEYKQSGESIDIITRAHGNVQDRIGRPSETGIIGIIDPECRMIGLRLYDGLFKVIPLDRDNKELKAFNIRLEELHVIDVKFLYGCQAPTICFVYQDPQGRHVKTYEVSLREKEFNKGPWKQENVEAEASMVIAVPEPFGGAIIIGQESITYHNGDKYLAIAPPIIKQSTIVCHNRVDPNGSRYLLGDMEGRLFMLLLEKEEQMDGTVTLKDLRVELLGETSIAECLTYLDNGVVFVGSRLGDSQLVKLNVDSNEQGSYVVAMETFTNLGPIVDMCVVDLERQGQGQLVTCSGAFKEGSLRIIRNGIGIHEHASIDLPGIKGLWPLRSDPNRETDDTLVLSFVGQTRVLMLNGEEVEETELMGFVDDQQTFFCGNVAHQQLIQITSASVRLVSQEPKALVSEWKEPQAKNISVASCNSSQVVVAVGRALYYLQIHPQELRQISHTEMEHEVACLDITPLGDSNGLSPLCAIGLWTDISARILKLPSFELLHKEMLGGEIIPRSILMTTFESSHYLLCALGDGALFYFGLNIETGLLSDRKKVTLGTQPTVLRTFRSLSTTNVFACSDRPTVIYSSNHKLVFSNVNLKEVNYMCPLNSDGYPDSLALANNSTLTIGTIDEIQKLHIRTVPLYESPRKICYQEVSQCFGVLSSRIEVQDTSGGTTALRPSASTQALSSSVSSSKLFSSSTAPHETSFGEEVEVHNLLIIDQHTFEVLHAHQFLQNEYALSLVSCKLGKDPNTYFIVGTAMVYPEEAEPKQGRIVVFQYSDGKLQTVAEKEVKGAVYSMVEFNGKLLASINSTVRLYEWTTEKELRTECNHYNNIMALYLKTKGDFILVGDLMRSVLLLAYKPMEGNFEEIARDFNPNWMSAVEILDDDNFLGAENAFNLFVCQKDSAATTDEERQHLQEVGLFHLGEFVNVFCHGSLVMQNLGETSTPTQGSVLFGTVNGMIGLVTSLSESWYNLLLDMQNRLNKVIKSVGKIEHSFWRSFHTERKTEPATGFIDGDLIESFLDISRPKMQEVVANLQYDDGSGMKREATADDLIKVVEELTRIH
Procedure: CSNK1A1CK1α-HiBiT HEK293 LgBiT stable cells weretransfected with a HaloTag-CRBN vector (Promega, Cat. #N269A) using Fugene HD (Promega, Cat. #E2311). […] Plates were incubated overnight at 37 °C with 5% CO2. On day 3, a dose–response curve was generated by performing 3-fold dilutions of each compound including a DMSO-only control in OptiMEM I Reduced Serum Medium, no phenol red supplemented with 4% FBS. Cells were treated with MG132 (Selleckchem, Cat. #S2619) for 30 min before being treated with the dilution series of compounds. Plates were incubated for 2 h at 37 °C with 5% CO2. After 2 h, plates were read using NanoBRET Nano-Glo substrate (Promega #N1573) on a GloMax Discover following the manufacturer’s instructions. No ligand controls were subtracted from each sample and normalized to the no compound DMSO control to obtain Fractional BRET values. EC50 values were calculated for each compound curve.

Row | Compound | IC50 ([1]; Homo sapiens) | IC50 [1] | CK1a: CRBN Ternary Complex NanoBRET Ratio ([2]; 0.111 uM) | CK1a: CRBN Ternary Complex NanoBRET Ratio, Normalized ([2]; 0.111 uM) | CK1a: CRBN Ternary Complex NanoBRET Ratio ([2]; 0.333 uM) | CK1a: CRBN Ternary Complex NanoBRET Ratio, Normalized ([2]; 0.333 uM) | CK1a: CRBN Ternary Complex NanoBRET Ratio ([2]; 1 uM) | CK1a: CRBN Ternary Complex NanoBRET Ratio, Normalized ([2]; 1 uM) | CK1a: CRBN Ternary Complex NanoBRET Ratio ([2]; 3 uM) | CK1a: CRBN Ternary Complex NanoBRET Ratio, Normalized ([2]; 3 uM) | CK1a: CRBN Ternary Complex NanoBRET Ratio ([2]; 10 uM, replicates) | CK1a: CRBN Ternary Complex NanoBRET Ratio, Normalized ([2]; 10 uM, replicates) | Ternary complex formation (NanoBRET signal) ([2]; 2 h treatment) | Activity against PER117 cells ([1]; CTG)
1 | Cc1cccc(C(=O)Nc2ccc3c(c2)CN(C2CCC(=O)NC2=O)C3=O)c1 (centres unmarked) [SJ0040] | 5 nM | 4.7 nM and 5.3 nM | – | – | – | – | – | – | – | – | – | – | – | –
2 | O=C1CCC(N2Cc3cc(Nc4noc5ccccc45)ccc3C2=O)C(=O)N1 (centres unmarked) [SJ3149] | 0.8 nM | 1.1 nM | 3.47 mBU and 2.55 mBU and 2.79 mBU | 23.75 and 17.45 and 19.07 | 4.12 mBU and 3.68 mBU and 3.78 mBU | 28.17 and 25.18 and 25.82 | 4.59 mBU and 4.78 mBU and 4.4 mBU | 31.39 and 32.66 and 30.10 | 4.96 mBU and 4.79 mBU and 5.46 mBU | 33.90 and 32.75 and 37.33 | 5.57 mBU and 5.32 mBU and 5.78 mBU | 38.09 and 36.40 and 39.49 | most robust complex formation | sub-nanomolar activity
3 | O=C1CCC(N2Cc3c(CNC(=O)c4ccc(F)cc4)cccc3C2=O)C(=O)N1 (centres unmarked) [SJ7095] | – | – | 3.3 mBU and 3.11 mBU and 3.22 mBU and 2.76 mBU | 3.03 and 2.85 and 2.95 and 2.53 | 4.47 mBU and 5.14 mBU and 4.06 mBU and 4.1 mBU | 4.10 and 4.71 and 3.72 and 3.76 | 5.33 mBU and 5.06 mBU and 5.38 mBU and 4.31 mBU | 4.89 and 4.64 and 4.93 and 3.95 | 5.47 mBU and 7.05 mBU and 5.71 mBU and 6.74 mBU | 5.01 and 6.46 and 5.23 and 6.18 | 7.23 mBU and 6.62 mBU and 6.74 mBU and 6.49 mBU | 6.63 and 6.07 and 6.18 and 5.95 | – | –
